The test system of series [1] is human heparinized whole blood (erythrocytes). Kind of series: In vitro hemolysis test with co-solvents (study procedure, Drabkin's solution, absorbance 540 nm). Conditions: for max. well tolerated co-solvent concent: co-solvent diluted with NaCl 0.9%, intersection of fitted sigmoidal curve with 5% hemolysis line, 10 min at 37° C.; for hemolysis value: human, 10 min, 10 % v/v. The protocol:
A test was developed to determine the hemolytic activity of a pharmaceutical formulation. The test utilized fresh anticoagulated human blood. In general, the test was performed by diluting the pharmaceutical product with fresh saline, then mixing with an aliquot of fresh human whole blood. After incubating at 37° C., the test solutions were centrifuged, and the concentration of hemoglobin was measured in the supernatant using spectroscopic techniques.
To determine the 100% hemolysis value, equal volumes of […] and blood were mixed, centrifuged, and mixed again. 30 μl was transferred to a plate, and 170 μl of Drabkin's reagent was added. The 100% hemolysis value was indicated as Value A.
To determine the 0% hemolysis value, equal volumes of saline and blood were mixed. The 0% hemolysis value is indicated as Value B.
The dilutions were performed in glass or plastic tubes with a diameter of approximately 12 mm and a length of approximately 100 mm.
400 μl of whole blood was added to each tube. The components were carefully homogenized. The tubes were incubated for 10 minutes at 37° C., homogenized again and then centrifuged for 10 minutes at 2500×g. The contents of the tube were mixed for Value A (100% hemolysis) and then transferred 3 times 30 μl of each tube of the supernatant to a 96-well plate (flat bottom) and 170 μl of Drabkin's solution was added to each well containing solution. The plate was read in a plate reader at wavelength 540 nm.
For evaluation of the test results from the plate reader reading at wavelength 540 nm, the mean values of the triplicates were calculated. The percent hemolytic activity was determined according to the following formula:
wherein: % HA=percent hemolytic activity; A=Value for 100% HA; B=Value for 0% HA; C=Value for tested solution.
Dilutions of the co-solvents were prepared in tubes. An equal volume of human heparinized whole blood was added and homogenized. The test co-solvents were diluted in sterile, pyrogen-free water and sterile, pyrogen-free saline.
The following equation was used to obtain a curve fitting of the hemolysis data: […]
The maximal well tolerated co-solvent concentration was obtained by calculating the intersection of the sigmoidal curves with the horizontal line at hemolysis, i.e., 5%.

Series [2] can be described thus: Tonicity of 10% co-solvent solutions. Type of series: physicochemical. Conditions: solutions with 10% co-solvent.

On to `CC(O)CO` (stereo not drawn) [PG, Propylene glycol], for which, in series [1], the “hemolysis at the lowest tested co-solvent concentration (in words)” value was “high hemolysis”, the “max. well tolerated co-solvent concent” value came out at 48% and the hemolysis value was about 100%. Besides, in series [2], the “tonicity of the solution” value was “clearly hypertonic”.
As for Polyethylene glycol 400 [PEG 400], in series [1], the “co-solvent concentration at which significant (>10%) hemolysis is induced” value is given as 50-60% and the “effect of switch from water for injection to saline as diluent on hemolytic behavior” value was “did not drastically modify the hemolytic behavior”. Moreover, in series [2], the “tonicity of the solution” value is listed as “close to isotonicity”.
The matching figures for Polyethylene glycol 300 [PEG 300]: 60-70%, “did not drastically modify the hemolytic behavior” and “isotonic”.
For `CCO` [Ethanol], in series [1], the “flocculation in hemolysis test” value is recorded as “significant flocculation”, the “hemolysis at the lowest tested co-solvent concentration (in words)” value is “high hemolysis”, the “max. well tolerated co-solvent concent” value amounted to 29% and the hemolysis value is given as about 100%. The “tonicity of the solution” value in series [2] was “clearly hypertonic”.

For the origin of these results see US20220137028A1, “In Vitro Assays as Indicator of Local Tolerance” (Lonza Ltd, priority 2019, published 2022).
